From patent US8747910B2, “Prediction of response to platinum-based therapy” (Atlas Antibodies AB, priority 2009, dated 2014)

Key:
[1] = system: A2780 and A2780-Cp70 cells; assay: WST-1 cell viability assay after cisplatin treatment; format: cell-based, human; settings: A2780-cp70 compared to parental A2780; cisplatin 0-100 μM, 48 h; FIG. 23
Description: The effect of cisplatin on cell viability was determined by the WST-1 assay (Roche Applied Science) according to the manufacturer's recommendation. A2780 and A2780-Cp70 cells were seeded in 96-well plates at the density of 2500 cells/well in 100 μl appropriate medium a day before addition of cisplatin. The cells were treated with cisplatin (0-100 μM) for 48 h. Samples were made in triplicate. Ten microliters WST-1 solution was added per well and cells were incubated at 37° C. for 4 hr. The absorbance of each well was measured using a scanning multiwell spectrophotometer, ELISA reader at the wavelength of 450 nm and reference wavelength of 690 nm.

A2780 cells = assay: Effect of RBM3 knockdown on cisplatin resistance (WST-1 viability); format: cell-based, human; settings: cisplatin sensitive cells with anti-RBM3 siRNA 50 nM vs non-exposed cells; cisplatin 1-100 μM; FIG. 24
Description: The human ovarian cancer cell line A2780 and the cisplatin-resistant variant A2780 Cp70 were maintained in RPMI-1640 supplemented with glutamine, 10% fetal bovine serum and 1% penicillin/streptomycin in a humidified incubator of 5% CO2 at 37° C. Cisplatin (Sigma) was dissolved in 0.9% NaCl to a stock solution of 1 mg/ml and added to cell cultures to the final concentration (1-100 μM).
Transfection with siRNA against RBM3 (Applied Biosystems, Carlsbad, Calif.) or control siRNA (Applied Biosystems) was performed with Lipofectamine 2000 (Invitrogen, Carlsbad, Calif.) with a final concentration of 50 nM siRNA.
The effect of cisplatin on cell viability was determined by the WST-1 assay as described in Examples, section 12.

[2] = system: epithelial ovarian cancer; assay: Gene expression analysis of ovarian cancer, recurrence free survival; format: in vivo, human; settings: patients with tumors of high vs low RBM3 expression level; 210 serous samples; FIG. 19
Description: Data was collected from a previously performed microarray study, based on a patient cohort of 285 patients diagnosed with epithelial ovarian cancer between 1992 and 2006. Institutional Review Board approval for patient consent had been obtained for all patients.
The median age of patients was 59 years (ranging from 18-79 years). The inventors decided to exclude data from 18 patients who received neoadjuvant therapy, as the inventors realized that this treatment could possibly influence RBM3 mRNA levels, and might thus lead to biased results. Further, data from 40 patients who didn't receive platinum based therapy were removed from the data set. Of these 227 samples, 210 came from patients with serous cancer, 16 with endometroid and 1 with adenocarcinoma. For statistical analysis only serous samples were considered. Pathology evaluation data existed for all patients, and recurrence free survival was evaluated for RBM3 high as well as RBM3 low mRNA content.

`N.N.[Cl][Pt][Cl]` [cisplatin] was tested, and the “viability after cisplatin treatment” value [1] was “increased viability”, the “viability after cisplatin treatment at low RBM3 protein expression” value (A2780 cells) was “increased viability” and the recurrence free survival [2] was “significantly better recurrence free survival”.
